Type in all cases: cell-based
Assay [1] deals with melanoma cell line RPMI-7951. Kind of assay: Cytotoxicity in cancer cell lines (CellTiter-Glo), RPMI-7951. Conditions: Homo sapiens, RPMI-7951 cells, mean of three tests. The text has this: (§1) All cells were obtained from ATCC. […] Normocin® was obtained from InvivoGen. FBS was obtained from Gibco. […] All test compounds were synthesized as described herein.
Background: Cellular ATP, detected with luciferase, serves as a proxy for viable cell number.

Another assay relates to melanoma cell line A375. Kind of assay: Cytotoxicity in cancer cell lines (CellTiter-Glo), A375. Conditions: Homo sapiens, A-375, A375 cells, mean of three tests.
Excerpt: as §1

Assay [2] concerns glioblastoma cell line U87. Description: Cytotoxicity in cancer cell lines (CellTiter-Glo), U87. Conditions: Homo sapiens, U-87 MG, U87 cells, mean of three tests.
Excerpt: as §1

Assay [3] has as its system immortalized human T lymphocyte Jurkat cells. Kind of assay: Cytotoxicity in cancer cell lines (CellTiter-Glo), Jurkat. Conditions: mean of three tests.
Excerpt: as §1

For assay [4], the system named is human pancreatic carcinoma cell line PL45. Description: Cytotoxicity in cancer cell lines (CellTiter-Glo), PL45. Conditions: PL45 cells, mean of three tests.
Excerpt: as §1

Setting [5] is: 48 hours, read-out: Cytotoxicity EC50 at 48 hours, A375.
Where [6] appears, read: 48 hours, read-out: Cytotoxicity EC50 at 48 hours, PL45.

By EC50 is commonly meant the midpoint of the concentration-response curve.

Each structure is given as a SMILES string. Where two headings read alike, the source gives them in different places.

Turning to `O=S1(=O)C=CC(OS(=O)(=O)c2ccc(Oc3ccccc3)cc2)C1` (centres unmarked) [Compound 1, 1,1-dioxido-2,3-dihydrothiophen-3-yl 4-phenoxybenzenesulfonate], the EC50 in assay [1] (48 hours, read-out: Cytotoxicity EC50 at 48 hours, RPMI) came to 0.6 µM; in assay [1] (72 hours, read-out: Cytotoxicity EC50 at 72 hours, RPMI) it was 0.2 µM; in the assay on melanoma cell line A375 (setting [5]), 2.5 µM; with melanoma cell line A375 (72 hours, read-out: Cytotoxicity EC50 at 72 hours, A375), 13 µM; in assay [2] (48 hours, read-out: Cytotoxicity EC50 at 48 hours, U87) it was 1.3 µM; in assay [2] (72 hours, read-out: Cytotoxicity EC50 at 72 hours, U87) it was 0.9 µM. In addition, the EC50 in assay [3] (48 hours, read-out: Cytotoxicity EC50 at 48 hours, Jurkat) stood at 0.4 µM; in assay [3] (72 hours, read-out: Cytotoxicity EC50 at 72 hours, Jurkat) it was 0.2 µM; in assay [4] (setting [6]) it was 2.1 µM; in assay [4] (72 hours, read-out: Cytotoxicity EC50 at 72 hours, PL45) it was 0.2 µM.

For `O=S1(=O)C=C[C@H](OS(=O)(=O)c2ccc(Oc3ccccc3)cc2)C1` [Compound 1a, (S)-1,1-dioxido-2,3-dihydrothiophen-3-yl 4-phenoxybenzenesulfonate], the EC50 in the assay with melanoma cell line A375 (setting [5]) turned out to be 1.3 µM; in assay [4] (setting [6]), 2.1 µM.

On to `O=S1(=O)C=C[C@@H](OS(=O)(=O)c2ccc(Oc3ccccc3)cc2)C1` [Compound 1b, (R)-1,1-dioxido-2,3-dihydrothiophen-3-yl 4-phenoxybenzenesulfonate], for which the EC50 was found to be 2.5 µM in the assay on melanoma cell line A375 (setting [5]) and 3 µM in assay [4] (setting [6]).

(Values after patent US12404259B2, “Inhibitors of extracellular signal-regulated kinase” (GEN1E LIFESCIENCES INC., priority 2023, dated 2025).)
